How the values were obtained:
[1] = 1-octanol-aqueous buffer distribution coefficient, log D of the compound at pH 7.4; format: physicochemical
[2] = Apparent permeability across apical to basolateral side in human Caco2 cells at pH 7.4; format: ADME, cell-based; conditions: Caco-2, pH 7.4
[3] = Apparent permeability across basolateral to apical side in human Caco2 cells at pH 7.4; format: ADME, cell-based; conditions: Caco-2, pH 7.4
[4] = Apparent permeability in rat jejunum; format: ADME, tissue-based
[5] = Volume of distribution at steady state in iv dosed Harlan-Han Wistar rat; format: ADME, organism-based; conditions: in vivo, read-out: Vdss
[6] = Oral bioavailability in dog; format: ADME, organism-based, Canis lupus familiaris; conditions: in vivo
[7] = Drug absorption in po dosed mouse; format: ADME, organism-based; conditions: in vivo
[8] = Apparent permeability in human jejunum; format: ADME, tissue-based
[9] = Volume of distribution at steady state in iv dosed dog; format: ADME, organism-based, Canis lupus familiaris; conditions: in vivo, read-out: Vdss
[10] = Oral bioavailability in Harlan-Han Wistar rat; format: ADME, organism-based; conditions: in vivo
[11] = Drug absorption in po dosed rat; format: ADME, organism-based; conditions: in vivo
[12] = Drug absorption in po dosed hamster; format: ADME, organism-based; conditions: cricetinae, in vivo

Row | Compound | logD [1] | Papp A→B [2] [×10⁻⁶ cm/s] | other results
1 | Cc1ccc2[nH]c(C(=O)N[C@H]3CN(S(=O)(=O)c4ccnc(C)c4)C[C@@H]3C(=O)NCCN(C)C)cc2c1 | 1.7 |  | 
2 | Cc1ccc2[nH]c(C(=O)N[C@H]3CN(S(=O)(=O)c4cnccn4)C[C@@H]3C(=O)NCCN(C)C)cc2c1 | 1 |  | 
3 | Cc1ccc2[nH]c(C(=O)N[C@H]3CCN(S(=O)(=O)N4CCCCC4)C[C@@H]3C(=O)NCCN(C)C)cc2c1 | 2.3 |  | 
4 | Cc1ccc2[nH]c(C(=O)N[C@H]3CCN(S(=O)(=O)c4ccccc4Cl)C[C@@H]3C(=O)N[C@H]3CCCNC3)cc2c1 | 1.9 | < 0.01 | Papp B→A [3]: 1.4 ×10⁻⁶ cm/s
5 | O=C(N[C@H]1CN(S(=O)(=O)c2ccccc2)C[C@@H]1C(=O)N[C@H]1CCCNC1)c1cc(-c2ccccc2Cl)on1 | 1.9 | 0.31 | Papp [4]: < 1 ×10⁻⁶ cm/s; Vd [5]: 5.5 L/kg; bioavailability [6]: 40%; Drug absorption [7]: Not Active; Papp [8]: < 1 ×10⁻⁶ cm/s; Vd [9]: 6.6 L/kg; bioavailability [10]: < 1%; Drug absorption [11]: Not Active; Drug absorption [12]: Not Active
6 | Cc1ccc2[nH]c(C(=O)N[C@H]3Cc4ccccc4[C@@H]3C(=O)NCCN(C)C)cc2c1 | 2.4 |  | 
7 | Cc1ccc2[nH]c(C(=O)N[C@H]3CN(S(=O)(=O)C4CCOCC4)C[C@@H]3C(=O)NCCN(C)C)cc2c1 | 1 |  | 
8 | Cc1ccc2[nH]c(C(=O)N[C@H]3CCN(S(=O)(=O)N(C)C)C[C@@H]3C(=O)NCCN(C)C)cc2c1 | 1.2 |  | 
9 | Cc1ccc2[nH]c(C(=O)N[C@H]3CN(S(=O)(=O)c4cn(C)nc4C)C[C@@H]3C(=O)NCCN(C)C)cc2c1 | 1.4 |  | 
10 | Cc1csc(C(=O)N[C@H]2CN(S(=O)(=O)c3ccccc3)C[C@@H]2C(=O)N[C@H]2CCCNC2)n1 | 0.1 | 0.18 | 
11 | Cc1ccc2[nH]c(C(=O)N[C@H]3CCN(S(=O)(=O)C4CC4)C[C@@H]3C(=O)NCCN(C)C)cc2c1 | 1 |  | 
12 | Cc1ccc2[nH]c(C(=O)N[C@H]3CCN(S(=O)(=O)N4CCOCC4)C[C@@H]3C(=O)NCCN(C)C)cc2c1 (racemic) | 1 |  | 
13 | Cc1ccc2[nH]c(C(=O)N[C@H]3CCN(C(=O)c4cccnc4)C[C@@H]3C(=O)NCCN(C)C)cc2c1 (racemic) | 0.7 |  | 

Now from value to compound, other results behind:

Row | logD [1] | Papp A→B [2] [×10⁻⁶ cm/s] | Compound | other results
14 | 0.7 |  | Cc1ccc2[nH]c(C(=O)N[C@H]3CN(S(=O)(=O)c4ccnnc4)C[C@@H]3C(=O)NCCN(C)C)cc2c1 | 
15 | 2.3 | 0.24 | Cc1ccc2[nH]c(C(=O)N[C@H]3CN(S(=O)(=O)c4ccccc4)C[C@@H]3C(=O)NC[C@@H]3CCCN3C)cc2c1 | Papp B→A [3]: 19.3 ×10⁻⁶ cm/s
16 | 2.1 |  | Cc1ccc2[nH]c(C(=O)N[C@H]3CN(S(=O)(=O)c4ccccc4)C[C@@H]3C(=O)NCCN(C)C)cc2c1 | 
17 | 2.7 | 0.3 | Cc1ccc2[nH]c(C(=O)N[C@H]3CN(S(=O)(=O)c4ccccc4)C[C@@H]3C(=O)N[C@H]3CCCN(C)C3)cc2c1 | Papp B→A [3]: 16.3 ×10⁻⁶ cm/s
18 | 2.7 | 0.76 | Cc1ccc2[nH]c(C(=O)N[C@H]3CN(S(=O)(=O)c4ccccc4)C[C@@H]3C(=O)N[C@@H]3CCCN(C)C3)cc2c1 | Papp B→A [3]: 22.8 ×10⁻⁶ cm/s
19 | 3.1 | 0.27 | Cc1ccc2[nH]c(C(=O)N[C@H]3CCN(S(=O)(=O)c4ccccc4Cl)C[C@@H]3C(=O)N[C@H]3CCCN(C)C3)cc2c1 | Papp B→A [3]: 15.9 ×10⁻⁶ cm/s
20 | 1.4 |  | Cc1ccc2[nH]c(C(=O)N[C@H]3CN(S(=O)(=O)c4cccnc4)C[C@@H]3C(=O)NCCN(C)C)cc2c1 | 
21 | 2.3 | 0.08 | Cc1ccc2[nH]c(C(=O)N[C@H]3CN(S(=O)(=O)c4ccccc4)C[C@@H]3C(=O)NC[C@H]3CCCN3C)cc2c1 | Papp B→A [3]: 2.7 ×10⁻⁶ cm/s
22 | 1 | 0.11 | Cc1ccc2[nH]c(C(=O)N[C@H]3CN(S(=O)(=O)c4ccccc4)C[C@@H]3C(=O)NC[C@H]3CCCN3)cc2c1 | Papp B→A [3]: 15.9 ×10⁻⁶ cm/s
23 | 2.2 to 2.3 |  | Cc1ccc2[nH]c(C(=O)N[C@H]3CCN(S(=O)(=O)c4ccccc4)C[C@@H]3C(=O)NCCN(C)C)cc2c1 | 
24 | 1.3 | 0.04 | Cc1ccc2[nH]c(C(=O)N[C@H]3CN(S(=O)(=O)c4ccccc4)C[C@@H]3C(=O)N[C@H]3CCCNC3)cc2c1 | Papp B→A [3]: 2 ×10⁻⁶ cm/s
25 | 2.3 |  | Cc1ccc2[nH]c(C(=O)N[C@@H]3CCN(S(=O)(=O)c4ccccc4)C[C@H]3C(=O)NCCN(C)C)cc2c1 | 
26 | 2.1 |  | Cc1ccc2[nH]c(C(=O)N[C@@H]3CN(S(=O)(=O)c4ccccc4)C[C@H]3C(=O)NCCN(C)C)cc2c1 | 
27 | 1.3 | 0.04 | Cc1ccc2[nH]c(C(=O)N[C@H]3CN(S(=O)(=O)c4ccccc4)C[C@@H]3C(=O)N[C@@H]3CCCNC3)cc2c1 | Papp B→A [3]: 1.6 ×10⁻⁶ cm/s
28 | 1.3 |  | Cc1ccc2[nH]c(C(=O)N[C@H]3CCN(S(=O)(=O)c4cccnc4)C[C@@H]3C(=O)NCCN(C)C)cc2c1 (racemic) | 
29 | 2.3 |  | Cc1ccc2[nH]c(C(=O)N[C@H]3CN(S(=O)(=O)c4ccccc4)C[C@H]3C(=O)NCCN(C)C)cc2c1 (racemic) | 
30 | 1.9 |  | Cc1ccc2[nH]c(C(=O)N[C@H]3CN(S(=O)(=O)c4ccccc4)CC[C@H]3C(=O)NCCN(C)C)cc2c1 (racemic) | 
31 | 2.1 |  | Cc1ccc2[nH]c(C(=O)N[C@@H]3CCN(S(=O)(=O)c4ccccc4)C[C@@H]3C(=O)NCCN(C)C)cc2c1 (racemic) | 
32 | 1.9 |  | Cc1ccc2[nH]c(C(=O)N[C@H]3CN(S(=O)(=O)c4ccccc4)CC[C@@H]3C(=O)NCCN(C)C)cc2c1 (racemic) | 

— ChEMBL document CHEMBL4622972 (J Med Chem, 2020)
